Measurements reported in patent US20240261274A1, “TREATMENT OF MYC-DRIVEN CANCERS WITH GSPT1 DEGRADERS” (MONTE ROSA THERAPEUTICS, INC., priority 2021, published 2024).
Like-named read-outs stand apart in the source and are kept apart here.

Key:
[1] = target: T1, GSPT1 (Homo sapiens, UniProt P15170+Q96SW2); assay: GSPT1 levels in breast cancer tumors after compound 8 (western blotting); assay type: in vivo; design: endogenous in cells; details: three consecutive doses at 37 and 75 mpk; tumors harvested 24 hr post third dose; MDA-MB-468, MDA-MB-231, MDA-MB-436, CAL51
Description: Representative examples below show the levels of GSPT1 in MDA-MB-468 (ATCC HTB-132), MDA-MB-231 (ATCC HTB-26), MDA-MB-436 (ATCC HTB-130) and CAL51 (DSMZ-ACC-302) tumors (in lanes from top down as indicated) following three consecutive doses of compound 8 at 37 (right panel) and 75 mpk (middle panel) or administration of vehicle only (left panel). GADPH levels as control is shown in the lowest lane. Tumors were harvested 24 hr post third dose and levels of GSPT1 were determined by western blotting as indicated. Tumors were collected from the in vivo efficacy studies described in the previous FIG. 7A.

[2] = test system: human cell line NCI-H526 xenograft; assay: N-Myc-driven mouse xenograft model, NCI-H526, compound 210 oral; assay type: in vivo
[3] = target: T1, GSPT1; assay: GSPT1 degradation by immunoblotting in cancer cell lines (Compound 345); assay type: cell-based; design: endogenous in cells; host or cells: MM1 S (ATCC CRL-2974); details: for GSPT1 degradation (immunoblots): 0.03, 0.3, 3 μM; for DC50: read-out: GSPT1 DC50
Description: Two high N-Myc expressing NSCLC cell lines (NCI-H155 and ABC-1) and two low N-Myc expressing NSCLC cell lines (NCI-H2023 and NCI-H441) were treated with Compound 345 in culture. Cells were treated with increasing concentrations of the compound (0.0; 0.00064; 0.0032; 0.016; 0.08; 0.4; 2.0; 10; and 30 nM), lysates were prepared, SDS-PAGE and immunoblotting was performed, and transfer membranes were probed for GSPT1 and GAPDH as a loading control. Expression levels of GSPT1 detected in the immunoblots of this experiment are plotted against concentration of Compound 345 in FIG. 10B. DC50 values (the concentration of the compound at which the target protein is degraded by 50%) were estimated for each cell line. NCI-H155, DC50=14 nM; ABC-1, DC50=76 nM; NCI-H2023, DC50=18 nM; NCI-H441, DC50=8.7 nM. Estimated Dmax for all cell lines was 95%-99%.
GSPT1 and N-Myc western blotting analyses from cell line lysates: NCI-H1155, NCI-H2023, NCI-H441, ABC-1, NCI-H1836, NCI-H1876, MM.1S, DOHH2 and WSU-DLCLC2 cells were typically seeded in a 6 or 12 well plate (0.3 to 1.0×10^6 cells/mL) and incubated overnight. Compound 345 was dissolved in DMSO to obtain a 10 mM stock solution, and aliquots were stored at −20° C. The next day, cells were treated with various concentrations of Compound 345 or DMSO (Sigma, D2650) using a HP D300 dispenser (Tecan). Controls were pretreated for 30 minutes with Bortezomib (0.2 μM). Cells were washed with ice cold PBS at the indicated timepoints post addition of Compound 345 and lysed with 50 to 100 μL lysis buffer containing RIPA buffer (Invitrogen, R0278) and a mix of protease inhibitor cocktail (Sigma, P8340, 5726 and 0044). Protein concentration was assessed using the BCA assay (Pierce™ Rapid Gold BCA Protein Assay Kit, A53227) and 10 μg of protein was typically loaded onto a TGX Stain free 4-20% Criterion gel (Biorad, 5678095) for separation. Gel was transferred onto a 0.2 μm nitrocellulose membrane using the TransBlot transfer system (Biorad). Membranes were blocked in Every Blot Blocking Buffer (Biorad, 12010020) and incubated overnight at 4° C. with either of the following primary antibody: anti-GSPT1 diluted 1/5000th (Sigma, HPA052488), anti-N-Myc clone D1V2A diluted 1/1000th (Cell Signaling Technology, 84406), anti-α-Tubulin clone DM1A Alexa Fluor® 488 Conjugated (Cell Signaling Technology, Cat. No. CST8058) or anti-GAPDH Alexa647-coupled diluted 1/2500th (Invitrogen, MA5-15738-A647). The next day, a secondary HRP-conjugated goat anti-rabbit secondary antibody (Invitrogen, A16110) was used to allow detection of unlabelled primary antibodies. Membranes were imaged on a ChemiDoc imager (Biorad) using either fluorescence or chemiluminescence detection. Images were quantified using the Image Lab Software Version 6.1 (Biorad). Images were adjusted for alignment and contrast. Columns were manually defined to enable the band detection by the software. Band intensities, or densitometries, were exported to Excel (Microsoft® Excel® for Microsoft 365 MSO Version 2110) for further analysis. Briefly, band intensity for the protein of interest was normalized to the DMSO control, before being normalized to the GAPDH band intensity for the same column. Normalised data was transferred to GraphPad Prism 8.1.2 (GraphPad) and fitted using a four parameters models ([Inhibitor] vs. response—Variable slope) defined by the following equation: Y=Dmax+(Top−Dmax)/(1+(DC50/X)^HillSlope). Key degradation parameters reported included DC50 (concentration at which the GSPT1 total protein levels are reduced by 50%) and Dmax (maximum fractional amount of protein degraded).

[4] = test system: N-Myc; assay: N-Myc total protein levels in NSCLC lines after Compound 345 (western blot); assay type: cell-based; details: NSCLC cancer lines; N-Myc not detectable in NCI-H2023
Description: NCI-H1155 and NCI-H2023 were taken as representative of N-Myc high and low NSCLC. 12A: western blot analysis probing for GSPT1 and N-Myc following treatment with Compound 345 (as indicated). Tubulin was used as a loading control. N-Myc could not be detected by western blotting in the NCI-H2023 line. 12B: Single-sample gene set enrichment analysis (ssGSEA) results for a Myc target gene set at 6 hours (left) and 24 hours (right) after treatment. ssGSEA scores were normalized to DMSOs for each cell line and averaged for three replicates. Error bars denote+/−1 s.d. across replicates.

[5] = MM1 S multiple myeloma cells, 24 hours

T1 sequence (P15170 whole entry): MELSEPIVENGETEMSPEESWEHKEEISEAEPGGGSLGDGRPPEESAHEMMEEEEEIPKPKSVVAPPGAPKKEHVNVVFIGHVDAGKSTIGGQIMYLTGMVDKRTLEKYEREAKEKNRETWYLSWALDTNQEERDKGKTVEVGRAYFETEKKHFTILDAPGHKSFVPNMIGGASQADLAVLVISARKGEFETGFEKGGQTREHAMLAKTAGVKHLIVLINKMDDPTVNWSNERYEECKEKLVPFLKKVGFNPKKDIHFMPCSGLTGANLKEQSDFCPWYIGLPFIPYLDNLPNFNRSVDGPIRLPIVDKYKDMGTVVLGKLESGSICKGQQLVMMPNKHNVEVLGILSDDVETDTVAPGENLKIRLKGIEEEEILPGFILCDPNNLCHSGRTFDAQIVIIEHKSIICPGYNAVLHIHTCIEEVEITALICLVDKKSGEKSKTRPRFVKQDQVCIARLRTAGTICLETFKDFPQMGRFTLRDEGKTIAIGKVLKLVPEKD
T1 sequence (Q96SW2 whole entry): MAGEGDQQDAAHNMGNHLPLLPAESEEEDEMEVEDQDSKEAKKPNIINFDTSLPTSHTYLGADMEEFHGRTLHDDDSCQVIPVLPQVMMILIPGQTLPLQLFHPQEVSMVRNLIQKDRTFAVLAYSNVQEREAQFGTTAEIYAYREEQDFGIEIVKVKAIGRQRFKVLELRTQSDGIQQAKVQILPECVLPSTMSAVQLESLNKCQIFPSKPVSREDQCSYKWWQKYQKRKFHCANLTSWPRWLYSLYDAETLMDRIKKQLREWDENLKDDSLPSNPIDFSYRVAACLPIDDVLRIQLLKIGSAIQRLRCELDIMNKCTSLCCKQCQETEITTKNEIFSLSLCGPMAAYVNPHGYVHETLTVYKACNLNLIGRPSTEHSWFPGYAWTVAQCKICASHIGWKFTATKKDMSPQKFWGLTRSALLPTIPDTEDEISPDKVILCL
T1 sequence (Q16531 whole entry partner): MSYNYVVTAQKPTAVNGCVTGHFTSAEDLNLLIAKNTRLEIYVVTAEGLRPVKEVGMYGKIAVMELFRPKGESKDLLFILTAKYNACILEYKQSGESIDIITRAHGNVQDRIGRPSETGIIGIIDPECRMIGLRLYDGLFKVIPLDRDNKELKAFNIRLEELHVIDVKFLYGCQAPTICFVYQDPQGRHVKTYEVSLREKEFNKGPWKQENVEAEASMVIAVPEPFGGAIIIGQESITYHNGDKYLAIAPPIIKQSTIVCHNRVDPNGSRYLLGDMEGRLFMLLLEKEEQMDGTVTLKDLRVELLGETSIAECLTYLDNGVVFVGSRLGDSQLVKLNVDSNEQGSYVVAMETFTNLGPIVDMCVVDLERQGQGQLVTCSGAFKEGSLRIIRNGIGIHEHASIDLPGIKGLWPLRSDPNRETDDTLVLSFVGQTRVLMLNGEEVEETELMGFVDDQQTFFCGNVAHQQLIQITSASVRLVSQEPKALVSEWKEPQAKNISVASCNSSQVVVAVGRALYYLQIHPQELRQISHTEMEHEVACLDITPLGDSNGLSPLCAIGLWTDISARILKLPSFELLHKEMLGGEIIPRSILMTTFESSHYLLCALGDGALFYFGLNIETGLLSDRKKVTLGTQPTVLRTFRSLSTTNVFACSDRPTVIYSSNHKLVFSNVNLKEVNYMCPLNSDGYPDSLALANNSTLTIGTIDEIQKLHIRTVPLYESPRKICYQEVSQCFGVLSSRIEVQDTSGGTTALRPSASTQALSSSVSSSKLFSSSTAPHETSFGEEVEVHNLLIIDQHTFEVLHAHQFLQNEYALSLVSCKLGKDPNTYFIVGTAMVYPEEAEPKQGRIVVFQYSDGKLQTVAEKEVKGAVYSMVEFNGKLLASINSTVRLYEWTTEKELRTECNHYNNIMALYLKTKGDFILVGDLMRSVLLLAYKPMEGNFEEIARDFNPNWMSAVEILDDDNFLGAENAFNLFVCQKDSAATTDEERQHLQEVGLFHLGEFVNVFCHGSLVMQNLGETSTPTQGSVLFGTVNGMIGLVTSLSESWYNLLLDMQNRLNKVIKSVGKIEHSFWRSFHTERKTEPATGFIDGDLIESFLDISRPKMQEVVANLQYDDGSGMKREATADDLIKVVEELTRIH

How did the “GSPT1 levels in tumors” value [1] turn out when `Cc1ccc(NC(=O)NCc2ccc3c(c2)C(=O)N(C2CCC(=O)NC2=O)C3)cc1Cl` (centres unmarked) [Compound 8] was run?
Its value is “robust and dose-dependent degradation of GSPT1 levels in tumors”.

For `Cc1ccc(NC(=O)OCc2ccc3c(c2)C(=O)N(C2CCC(=O)NC2=O)C3)cc1Cl` (centres unmarked) [Compound 210], which tumor size ([2]; 3 mg/kg once daily) is on record?
The tumor size was “tumor size decreased and remained so until the end of the study”.

What about the tumor size ([2]; 6 mg/kg, five days on and nine days off) of the same molecule?
Its tumor size is “tumor size decreased and remained so until the end of the study”.

And the body weight ([2]; oral administration)?
The body weight was “no body weight loss observed”.

And the tumor growth ([2]; oral administration)?
Its tumor growth is “tumor growth inhibition”.

How did the Dmax [3, 5] turn out when `O=C1CCC(N2Cc3ccc(COC(=O)Nc4cc(OC(F)(F)F)ccc4F)cc3C2=O)C(=O)N1` (centres unmarked) [Compound 345, (2-(2,6-dioxopiperidin-3-yl)-3-oxoisoindolin-5-yl)methyl(2-fluoro-5-(trifluoromethoxy)phenyl)carbamate] was run?
Its Dmax is 100%.

What about the “GSPT1 degradation (immunoblots)” value ([3]; NCI-H155 and NCI-H2023, 0, 2, 6 hours) of the same molecule?
Its value is “efficient degradation of GSPT1 in a time and dose dependent manner”.

What about the “GSPT1 degradation (immunoblots)” value ([3]; SCLC cell lines NCI-H1836 and NCI-H1876, up to 24 hours) of the same molecule?
The value was “efficient degradation of GSPT1 in SCLC cell lines in a time and dose dependent manner”.

And the Dmax ([3]; WSUDLCL2, WSU-DLCL2 triple hit lymphoma cells, 24 hours)?
Its Dmax is 100%.

What about the Dmax ([3]; all cell lines (NCI-H155, ABC-1, NCI-H2023, NCI-H441)) of the same molecule?
The Dmax was 95 to 99%.

And the DC50 ([3]; ABC-1 (high N-Myc NSCLC))?
The DC50 was 76 nM.

What about the DC50 [3, 5] of the same molecule?
Its DC50 is 6 nM.

What about the DC50 ([3]; NCI-H155 (high N-Myc NSCLC)) of the same molecule?
The DC50 was 14 nM.

What about the DC50 ([3]; NCI-H441 (low N-Myc NSCLC)) of the same molecule?
The DC50 was 8.7 nM.

And the DC50 ([3]; NCI-H2023 (low N-Myc NSCLC))?
The DC50 was 18 nM.

And the DC50 ([3]; WSU-DLCL2 triple hit lymphoma cells, 24 hours)?
The DC50 was 24 nM.

What about the “N-Myc total protein levels, timecourse” value [4] of the same molecule?
The value was “downregulation of N-Myc total protein levels”.
